# Measurements as given in patent US9840513B2 (AbbVie S.à.r.l., priority 2015, dated 2017).
# Tests used:
# [1] = target: T1, F508delCFTR cell surface expression in CFBE41o-F508delCFTR-HRP cells (Homo sapiens, UniProt P13569, DEL508-508); assay: Cell Surface Expression-Horse Radish Peroxidase (CSE-HRP) Assay; format: cell-based; conditions: for EC50: CFBE41o-F508delCFTR-HRP cells, 18-24 hours at 33° C., 8-point curve, highest concentration 20 μM; for Maximum % activity (%): maximum at any tested concentration, normalized to on-plate positive control (3 μM)
# T1 construct: fused on or other part: Horseradish peroxidase (HRP) reporter inserted in the fourth exofacial (extracellular) loop of CFTR; expression is doxycycline-inducible
# T1 sequence (P13569 with tags, fused parts or gaps DEL508-508 limits assumed): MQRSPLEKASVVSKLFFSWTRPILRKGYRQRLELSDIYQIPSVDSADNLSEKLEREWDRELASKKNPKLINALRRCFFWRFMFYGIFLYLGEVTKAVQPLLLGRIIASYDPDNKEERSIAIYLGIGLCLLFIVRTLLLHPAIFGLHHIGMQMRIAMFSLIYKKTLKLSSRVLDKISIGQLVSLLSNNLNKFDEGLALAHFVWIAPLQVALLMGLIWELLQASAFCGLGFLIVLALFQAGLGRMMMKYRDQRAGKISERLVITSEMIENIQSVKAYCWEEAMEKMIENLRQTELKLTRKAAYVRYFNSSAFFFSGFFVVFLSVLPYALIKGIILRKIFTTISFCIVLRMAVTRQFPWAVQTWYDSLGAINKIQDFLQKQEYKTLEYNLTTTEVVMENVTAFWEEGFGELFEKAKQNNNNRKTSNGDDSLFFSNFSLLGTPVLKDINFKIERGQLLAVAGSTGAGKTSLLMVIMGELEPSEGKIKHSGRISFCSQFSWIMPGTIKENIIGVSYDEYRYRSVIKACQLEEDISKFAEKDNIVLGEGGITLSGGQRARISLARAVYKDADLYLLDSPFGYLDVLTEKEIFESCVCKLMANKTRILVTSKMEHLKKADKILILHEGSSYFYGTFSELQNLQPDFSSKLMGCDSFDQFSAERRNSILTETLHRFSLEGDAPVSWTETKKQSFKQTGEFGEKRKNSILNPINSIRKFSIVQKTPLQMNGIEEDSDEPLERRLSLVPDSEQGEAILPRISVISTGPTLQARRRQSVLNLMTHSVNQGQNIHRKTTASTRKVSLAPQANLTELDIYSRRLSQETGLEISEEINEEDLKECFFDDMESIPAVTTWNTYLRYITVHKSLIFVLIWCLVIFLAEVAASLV
# T1 sequence (P13569 919-1480 limits assumed, stated change not applied): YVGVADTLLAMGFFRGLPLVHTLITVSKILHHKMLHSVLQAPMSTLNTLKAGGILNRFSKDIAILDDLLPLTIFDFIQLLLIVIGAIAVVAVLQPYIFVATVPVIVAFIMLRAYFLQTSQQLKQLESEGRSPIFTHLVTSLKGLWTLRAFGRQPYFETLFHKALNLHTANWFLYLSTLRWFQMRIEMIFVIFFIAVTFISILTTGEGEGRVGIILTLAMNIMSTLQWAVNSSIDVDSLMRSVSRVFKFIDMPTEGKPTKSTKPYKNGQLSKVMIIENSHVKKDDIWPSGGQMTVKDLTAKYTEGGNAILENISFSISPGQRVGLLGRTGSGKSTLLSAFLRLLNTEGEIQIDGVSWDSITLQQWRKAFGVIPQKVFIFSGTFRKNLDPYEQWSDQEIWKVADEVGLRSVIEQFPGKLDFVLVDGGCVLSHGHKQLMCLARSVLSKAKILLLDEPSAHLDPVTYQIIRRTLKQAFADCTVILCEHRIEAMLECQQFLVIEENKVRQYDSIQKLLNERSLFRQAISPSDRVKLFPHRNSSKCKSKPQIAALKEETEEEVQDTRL
# Outline: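 CFBE41o- cells with HRP-tagged F508delCFTR, expression induced by 0.5 μg/mL doxycycline for 72 h at 37 °C, then compound for 18-24 h at 33 °C (8-point, 3-fold, top 20 μM). Surface HRP measured by luminol luminescence; % activity normalised to 3 μM positive-control corrector; EC50 from variable-slope sigmoidal fit, three replicate plates.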
# [2] = target: T2, F508delCFTR in primary hBE cells with F508del/F508del CFTR mutation (Homo sapiens, UniProt P13569, DEL508-508); assay: Transepithelial Clamp Circuit on Human Bronchial Epithelial Cells Conductance Assay (hBE-TECC); format: cell-based; conditions: for EC50: primary hBE cells F508del/F508del, 18-24 hours at 37° C., equivalent short circuit current, 6 concentrations
# T2 construct: cells isolated from CF patients with the homozygous mutation; endogenous in cells; host or cells: primary human bronchial epithelial (hBE) cells from F508del/F508del CF patients
# T2 sequence (P13569 with tags, fused parts or gaps DEL508-508): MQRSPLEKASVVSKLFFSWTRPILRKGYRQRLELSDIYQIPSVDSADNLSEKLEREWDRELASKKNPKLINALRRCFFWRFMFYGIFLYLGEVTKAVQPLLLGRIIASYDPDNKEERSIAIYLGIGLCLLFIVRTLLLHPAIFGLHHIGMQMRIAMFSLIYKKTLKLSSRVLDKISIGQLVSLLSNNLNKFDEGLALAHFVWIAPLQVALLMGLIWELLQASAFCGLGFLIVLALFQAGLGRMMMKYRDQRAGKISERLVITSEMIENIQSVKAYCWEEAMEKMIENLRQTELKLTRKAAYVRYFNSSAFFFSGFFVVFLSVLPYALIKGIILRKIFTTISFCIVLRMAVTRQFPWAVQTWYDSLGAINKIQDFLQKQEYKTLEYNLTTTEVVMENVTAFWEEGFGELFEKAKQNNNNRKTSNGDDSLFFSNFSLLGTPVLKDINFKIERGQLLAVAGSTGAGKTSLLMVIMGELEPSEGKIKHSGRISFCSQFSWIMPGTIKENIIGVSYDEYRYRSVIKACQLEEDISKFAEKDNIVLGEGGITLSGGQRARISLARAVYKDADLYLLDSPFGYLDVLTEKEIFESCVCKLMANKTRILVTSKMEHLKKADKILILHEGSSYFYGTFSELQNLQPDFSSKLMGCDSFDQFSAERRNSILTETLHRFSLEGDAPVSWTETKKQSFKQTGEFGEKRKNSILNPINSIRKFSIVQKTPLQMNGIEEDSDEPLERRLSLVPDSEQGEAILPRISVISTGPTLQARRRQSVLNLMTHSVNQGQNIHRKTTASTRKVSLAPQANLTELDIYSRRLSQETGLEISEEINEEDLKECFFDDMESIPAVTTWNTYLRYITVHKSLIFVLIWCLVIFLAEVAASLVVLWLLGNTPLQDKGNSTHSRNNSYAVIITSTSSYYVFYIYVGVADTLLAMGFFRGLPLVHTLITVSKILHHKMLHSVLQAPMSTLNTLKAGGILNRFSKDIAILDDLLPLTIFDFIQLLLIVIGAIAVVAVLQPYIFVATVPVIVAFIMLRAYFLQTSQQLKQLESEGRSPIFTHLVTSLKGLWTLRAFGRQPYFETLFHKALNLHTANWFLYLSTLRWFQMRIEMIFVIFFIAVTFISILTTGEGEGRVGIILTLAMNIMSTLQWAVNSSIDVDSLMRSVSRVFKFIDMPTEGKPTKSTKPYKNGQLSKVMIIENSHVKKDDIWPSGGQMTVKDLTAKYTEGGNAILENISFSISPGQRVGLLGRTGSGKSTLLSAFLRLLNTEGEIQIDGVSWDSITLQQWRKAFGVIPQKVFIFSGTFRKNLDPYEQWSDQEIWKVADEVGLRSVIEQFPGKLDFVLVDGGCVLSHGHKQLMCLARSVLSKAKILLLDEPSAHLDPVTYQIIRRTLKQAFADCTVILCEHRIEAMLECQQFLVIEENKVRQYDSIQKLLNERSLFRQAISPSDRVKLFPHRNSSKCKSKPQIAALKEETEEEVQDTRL
# Description: Transepithelial Clamp Circuit on Human Bronchial Epithelial Cells Conductance Assay:
# A cell based assay using the primary human bronchial epithelial cells (hBE) was used as a secondary assay to test novel F508delCFTR correctors for their activity on primary hBE cells with F508del/F508del CFTR mutation. The assay used a TECC-24 (Transepithelial Clamp Circuit for 24 wells) instrument that measures the functionality of the mutated channel by measuring the equivalent short circuit current (Ieq) generated by the polarized epithelial cells. The instrument works by measuring the transepithelial potential difference (Vt) and transepithelial resistance (Rt) in an open circuit format, and the Ieq is calculated by using Ohms law (Ieq=Vt/Rt). The assay was run in a 24-well format and all 24-wells were measured at the same time point giving a higher throughput for this assay.
# Primary human bronchial epithelial (hBE) cells from F508del/F508delCFTR patients were expanded from 1×10^6 to 250×10^6 cells (Neuberger T, Burton B, Clark H and VanGoor F; Cystic Fibrosis, Methods in Mole Biol 741; eds. Amaral M D and Kunzelmann K, 2011). For this purpose, cells isolated from CF patients with the homozygous mutation were seeded onto 24 well Corning (Cat #3378) filter plates that were coated with 3T3 conditioned media and grown at an air-liquid interface for 35 days using an Ultroser® G supplemented differentiation media. Apical surface mucus was removed 72 hours before the experiment using 3 mM dithiothreitol (DTT) in phosphate buffered saline (PBS). The apical surface was washed again 24 hours before the experiment using PBS. The cells were incubated with the desired dose response of the corrector compounds 18-24 hours at 37° C., 5% CO2. The corrector compounds are only added on the basolateral side of the epithelial cells.
# On the day of measuring the corrector activity on the TECC, the cells were switched into a bicarbonate and serum free F-12 Coon's medium and allowed to equilibrate for 90 minutes in a CO2 free incubator. At the time of measurement, the apical and basolateral sides of the filter were bathed with the F-12 Coon's modification media (with 20 mM 4-(2-hydroxyethyl)-1-piperazineethanesulfonic acid (HEPES), pH 7.4 (using 1 M tris(hydroxymethyl)aminomethane (Tris)), and the measurements were made at 36.5° C. Transepithelial voltage (Vt) and transepithelial resistance (Rt) were measured using a 24 channel transepithelial current clamp (TECC-24). Current responses to the sequential addition of benzamil (apical 6 μM addition; for inhibiting epithelial ENaC channel), forskolin (apical and basolateral 10 μM addition; for activating the CFTR channel), control potentiator (N-(3-carbamoyl-5,5,7,7-tetramethyl-4,7-dihydro-5H-thieno[2,3-c]pyran-2-yl)-1H-pyrazole-5-carboxamide; apical and basolateral […] addition; for potentiating the CFTR channel) and bumetanide (basolateral 20 μM addition; for inhibiting the Na:2Cl:K co-transporter, an indirect measure of inhibiting the Cl-secretion driven by CFTR channel) were measured.
# All plates contained negative controls (dimethyl sulfoxide, DMSO) which coupled with the control potentiator (N-(3-carbamoyl-5,5,7,7-tetramethyl-4,7-dihydro-5H-thieno[2,3-c]pyran-2-yl)-1H-pyrazole-5-carboxamide) sets the null response and positive controls (3 μM of 3-[(2R,4R)-4-({[1-(2,2-difluoro-1,3-benzodioxol-5-yl)cyclopropyl]carbonyl}amino)-7-methoxy-3,4-dihydro-2H-chromen-2-yl]benzoic acid) coupled with the control potentiator sets the 100% response to measure the correction of the mutated CFTR channel. The maximum percent activity is reported relative to the positive control value.
# The % activity measured at each of the 6 test concentrations of the test compound was normalized to the on-plate positive control using the following formula: % activity=[[…]]*100 […]
# [3] = relative to positive control (3 μM) coupled with control potentiator
EC50 [1] [nM],Maximum % activity (%) [1] [%],EC50 [2] [nM],"Maximum % activity (%) [2, 3] [%]",Maximum % activity (%) ([2]; testing concentration 1 μM),Maximum % activity (%) ([2]; testing concentration 10 μM),Maximum % activity (%) ([2]; testing concentration 3 μM),Structure (SMILES)
730,83,564,70,–,–,–,"Cc1ccc(NC(=O)[C@]2(C)CCc3c2ccc2c3OCO2)cc1-c1cccc(C(=O)O)c1 (single isomer, unassigned) [Example 37]"
930,114,246,83,–,–,–,"C[C@]1(C(=O)N[C@H]2C[C@@H](c3ccccc3)O[C@@H](c3ccc(C(=O)O)cc3)C2)COc2cc3c(cc21)OC(F)(F)O3 (single isomer, unassigned) [Example 44]"
90,126,6,103,–,–,–,"COc1ccc2c(c1)O[C@@H](c1cnc([C@H](O)CO)cn1)C[C@H]2NC(=O)[C@@]1(C)COc2cc3c(cc21)OC(F)(F)O3 (single isomer, unassigned) [Example 192]"
300,159,242,99,–,–,–,"Cc1ccc(NC(=O)C2(C)COc3cc4c(cc32)OC(F)(F)O4)nc1-c1cccc(C(=O)O)c1 (centres unmarked) [Example 2, 3-{6-[(2,2-difluoro-7-methyl-6,7-dihydro-2H-furo[2,3-f][1,3]benzodioxole-7-carbonyl)amino]-3-methylpyridin-2-yl}benzoic acid]"
290,157,199,103,–,–,–,"Cc1ccc(NC(=O)[C@@]2(C)COc3cc4c(cc32)OC(F)(F)O4)nc1-c1cccc(C(=O)O)c1 [Example 6, 3-(6-{[(7R)-2,2-difluoro-7-methyl-6,7-dihydro-2H-furo[2,3-f][1,3]benzodioxole-7-carbonyl]amino}-3-methylpyridin-2-yl)benzoic acid]"
510,166,–,–,91,–,–,"COc1ccc2c(c1)O[C@@H](c1cccc(C(=O)O)c1)C[C@H]2NC(=O)C1(C)COc2cc3c(cc21)OC(F)(F)O3 (stereo partly drawn) [Example 11, 3-{(2R,4R)-4-[(2,2-difluoro-7-methyl-6,7-dihydro-2H-furo[2,3-f][1,3]benzodioxole-7-carbonyl)amino]-7-methoxy-3,4-dihydro-2H-1-benzopyran-2-yl}benzoic acid]"
30,150,11,98,–,–,–,"COc1ccc2c(c1)O[C@@H](c1ccc(C(=O)O)cc1)C[C@H]2NC(=O)[C@@]1(C)COc2cc3c(cc21)OC(F)(F)O3 [Example 20, 4-[(2R,4R)-4-{[(7R)-2,2-difluoro-7-methyl-6,7-dihydro-2H-furo[2,3-f][1,3]benzodioxole-7-carbonyl]amino}-7-methoxy-3,4-dihydro-2H-1-benzopyran-2-yl]benzoic acid]"
1260,162,468,94,–,–,–,"CC1(C(=O)N[C@@H]2C[C@H](c3cccc(C(=O)O)c3)Oc3ccccc32)COc2cc3c(cc21)OC(F)(F)O3 (stereo partly drawn) [Example 21, 3-{(2R,4R)-4-[(2,2-difluoro-7-methyl-6,7-dihydro-2H-furo[2,3-f][1,3]benzodioxole-7-carbonyl)amino]-3,4-dihydro-2H-1-benzopyran-2-yl}benzoic acid]"
1160,82,–,–,–,61,–,"CC1(C(=O)Nc2cc(-c3ccccc3)nn(C[C@@H](O)CO)c2=O)COc2cc3c(cc21)OC(F)(F)O3 (stereo partly drawn) [Example 25, N-{2-[(2R)-2,3-dihydroxypropyl]-3-oxo-6-phenyl-2,3-dihydropyridazin-4-yl}-2,2-difluoro-7-methyl-6,7-dihydro-2H-furo[2,3-f][1,3]benzodioxole-7-carboxamide]"
810,82,–,–,–,–,54,"C[C@]1(C(=O)Nc2cc(-c3ccccc3)nn(C[C@@H](O)CO)c2=O)COc2cc3c(cc21)OC(F)(F)O3 [Example 27, (7R)—N-{2-[(2R)-2,3-dihydroxypropyl]-3-oxo-6-phenyl-2,3-dihydropyridazin-4-yl}-2,2-difluoro-7-methyl-6,7-dihydro-2H-furo[2,3-f][1,3]benzodioxole-7-carboxamide]"
980,122,–,–,–,47,–,"CC1(C(=O)Nc2cc(C3CC3)nn(-c3ccc(C(=O)O)cc3)c2=O)COc2cc3c(cc21)OC(F)(F)O3 (centres unmarked) [Example 30, 4-{3-cyclopropyl-5-[(2,2-difluoro-7-methyl-6,7-dihydro-2H-furo[2,3-f][1,3]benzodioxole-7-carbonyl)amino]-6-oxopyridazin-1(614)-yl}benzoic acid]"
880,144,–,–,–,–,51,"C[C@]1(C(=O)Nc2cc(C3CC3)nn(-c3ccc(C(=O)O)cc3)c2=O)COc2cc3c(cc21)OC(F)(F)O3 [Example 32, 4-[3-cyclopropyl-5-{[(7R)-2,2-difluoro-7-methyl-6,7-dihydro-2H-furo[2,3-f][1,3]benzodioxole-7-carbonyl]amino}-6-oxopyridazin-1(6H)-yl]benzoic acid]"
940,76,–,–,–,–,80,"CC1(C(=O)N[C@@H]2C[C@H](c3cccc(C(=O)O)c3)Oc3ccccc32)CCc2cc3c(cc21)OC(F)(F)O3 (stereo partly drawn) [Example 35, 3-{(2R,4R)-4-[(2,2-difluoro-5-methyl-6,7-dihydro-2H,5H-indeno[5,6-d][1,3]dioxole-5-carbonyl)amino]-3,4-dihydro-2H-1-benzopyran-2-yl}benzoic acid]"
1240,79,–,–,–,77,–,"Cc1ccc(NC(=O)C2(C)CCc3c2ccc2c3OCO2)cc1-c1cccc(C(=O)O)c1 (centres unmarked) [Example 36, 2′-methyl-5′-[(6-methyl-7,8-dihydro-2H,6H-indeno[4,5-d][1,3]dioxole-6-carbonyl)amino][1,1′-biphenyl]-3-carboxylic acid]"
1260,106,–,–,–,–,47,"COc1ccc2c(c1)O[C@@H](c1ccc(C(=O)O)cc1)C[C@H]2NC(=O)C1(C)COc2c1ccc1c2OC(F)(F)O1 (stereo partly drawn) [Example 39, 4-{(2R,4R)-4-[(2,2-difluoro-6-methyl-6,7-dihydro-2H-furo[2,3-e][1,3]benzodioxole-6-carbonyl)amino]-7-methoxy-3,4-dihydro-2H-1-benzopyran-2-yl}benzoic acid]"
430,142,220,105,–,–,–,"COc1ccc2c(c1)O[C@@H](c1ccc(C(=O)O)cc1)C[C@H]2NC(=O)[C@]1(C)CCc2c1ccc1c2OCO1 [Example 46, 4-[(2R,4R)-7-methoxy-4-{[(6R)-6-methyl-7,8-dihydro-2H,6H-indeno[4,5-d][1,3]dioxole-6-carbonyl]amino}-3,4-dihydro-2H-1-benzopyran-2-yl]benzoic acid]"
